Source: patent US10011635B2, “Cyclic peptide conjugates and methods of use” (priority 2013, dated 2018)
Numbered stars: 1 amine (or outer) side, 2 acyl side, 3 side chain; on linkers, the order of the positions; unused ones are H or OH. Bridge positions count the residues as written; N and C are the ends. Square brackets hold non-standard residues; d marks the D form. Peptide text beside a SMILES is read from it. * marks the point of attachment. dProlinol(O-CH2CO) = O=C(COC[C@H]1CCCN1[*:1])[*:2]; N(2-Aminoethyl)Gly = O=C(CN(CCN[*:3])[*:1])[*:2]; Nle = CCCC[C@H](N)C(=O)O; Ms = CS(=O)(=O)*

Key:
[1] = Maximum tolerated dose of MTI-101; design: species or system C57 BL/KaLwRij mice; conditions: mouse, in vivo, ip; i.p. 3× weekly for three weeks
multiple myeloma (MM) = conditions: summary statement, no test described; cited from earlier work
H929 cells = assay: In vitro cytotoxicity, PI staining, flow cytometry and microscopy (H929); type: cell-based, human; conditions: 1 hour at 37° C., flow cytometry, compared to medium alone
Procedure: FSC/SSC scatter densities distinguished live cells (right population) and dead cells (left population). This was confirmed by PI staining.
(§1) The cells were incubated with the conjugates and negative and positive controls for 1 hour at 37° C. followed by propidium iodide (PI) staining and flow cytometry analysis using FSC/SSC scatter densities and fluorescence to distinguish live and dead cells.

U266 cells = assay: In vitro cytotoxicity, PI staining and flow cytometry (U266); type: cell-based, human; conditions: 1 hour at 37° C., PI staining, flow cytometry; compared to medium alone
Procedure: as §1

5TGM1 cells = assay: 5TGM1 murine myeloma model in vivo (survival, serum IgG2b); conditions: 5TGM1 i.v. in C57BL6/KaLwRij mice; i.v. once weekly for 3 weeks; 10 mg/kg Fc-Sec-MTI-101, 10 mg/kg Fc-stop or MTI-101 0.3285 mg/kg; n=5
Procedure: One million 5TGM1 cells were injected intravenously (i.v.) in C57BL6/KaLwRij mice. Mice injected i.v. were treated once weekly for 3 weeks with 10 mg/kg Fc-Sec-MTI-101, 10 mg/kg Fc-stop, or an equal payload of MTI-101 (0.3285 mg/kg). […] Medium survival was 35 days for control and MTI-101 IV equal payload, 26 days for […] and 62 days for Fc-Sec-MTI-101 (n=5 animals per group), as shown in FIG. 18B. IgG2b levels were measured by ELISA 28 days following tumor inoculation.
This is an excellent immune competent MM model in which drug response is monitored in the confines of the bone marrow microenvironment. […] 5TGM1 cells (1×10^6 in 100 μL of PBS) were injected intravenously (i.v.) into the tail vein of 6-week old C57 BL/KaLwRij mice (Harlen, Netherlands). Tumor was allowed to engraft for 10 days prior to the initiation of drug treatment.
To quantify tumor burden, blood was collected by submandibular bleeding and mice were monitored weekly by measuring 5TGM1 secreted IgG2b (paraprotein) in the serum by ELISA (FIG. 18B). Hind limb paralysis and hunching were considered as additional surrogate markers for morbidity.

In the case of `CCCC[C@@H]1NC(=O)CN(S(C)(=O)=O)CCNC(=O)[C@H](CCCCN)NC(=O)[C@H](CC(C)C)NC(=O)[C@H](CCCCN)NC(=O)[C@H](CC(C)C)NC(=O)[C@H](CCCCN)NC(=O)COC[C@H]2CCCN2C(=O)[C@H](Cc2c[nH]c3ccccc23)NC(=O)[C@H](C)NC(=O)[C@H](C(C)C)NC(=O)[C@H](C(C)C)NC1=O` [MTI-101] (Ms-[N(2-Aminoethyl)Gly][Nle]VVAW[dProlinol(O-CH2CO)]KLKLK; lactam 1-C), the MTD [1] is given as 10 mg/kg, the IC50 potency (multiple myeloma (MM)) is given as “near nM” and the “cytotoxicity toward H929 cells” value (H929 cells) is given as “clearly killed”. The “cytotoxicity toward U266 cells” value (U266 cells) was “clearly killed” and the Medium survival (5TGM1 cells) was 35 days.
